Source: article doi:10.1101/2023.10.20.563248v1 (biorxiv, 2023)

Tests used:
Conditions in all cases: 1 µM; inhibitor
[1] = biological target: BMX (Homo sapiens, UniProt P51813)
[2] = biological target: BTK (Homo sapiens, UniProt Q06187)
[3] = biological target: CAMKK1 (Homo sapiens, UniProt Q8N5S9)
[4] = biological target: CDK2/CycA2 (Homo sapiens, UniProt P24941)
[5] = biological target: CDK5 (Homo sapiens, UniProt Q00535)
[6] = biological target: CDK6 (Homo sapiens, UniProt Q00534)
[7] = biological target: CDK6/CycD3 (Homo sapiens, UniProt Q00534)
Sequence of CDK6/CycD3 (Q00534 whole entry): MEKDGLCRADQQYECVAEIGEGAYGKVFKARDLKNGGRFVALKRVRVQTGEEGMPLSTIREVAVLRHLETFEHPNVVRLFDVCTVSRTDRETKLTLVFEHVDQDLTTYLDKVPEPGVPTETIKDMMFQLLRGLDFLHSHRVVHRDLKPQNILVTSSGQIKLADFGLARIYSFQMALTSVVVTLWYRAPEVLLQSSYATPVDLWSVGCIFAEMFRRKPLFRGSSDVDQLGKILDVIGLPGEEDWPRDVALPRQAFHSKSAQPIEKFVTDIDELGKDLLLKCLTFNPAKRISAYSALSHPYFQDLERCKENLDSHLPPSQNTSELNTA
Sequence of CDK6/CycD3 (P30281 whole entry partner): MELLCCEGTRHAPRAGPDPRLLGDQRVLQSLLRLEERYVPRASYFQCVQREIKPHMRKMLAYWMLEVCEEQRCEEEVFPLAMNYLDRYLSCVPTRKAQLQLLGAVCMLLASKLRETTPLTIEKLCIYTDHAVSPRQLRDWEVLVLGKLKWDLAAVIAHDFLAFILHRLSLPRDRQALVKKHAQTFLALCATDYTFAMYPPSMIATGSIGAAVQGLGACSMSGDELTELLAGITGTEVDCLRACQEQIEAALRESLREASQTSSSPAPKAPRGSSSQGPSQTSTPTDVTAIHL

[8] = biological target: CDK9 (Homo sapiens, UniProt P50750)
Sequence of CDK9 (P50750 whole entry): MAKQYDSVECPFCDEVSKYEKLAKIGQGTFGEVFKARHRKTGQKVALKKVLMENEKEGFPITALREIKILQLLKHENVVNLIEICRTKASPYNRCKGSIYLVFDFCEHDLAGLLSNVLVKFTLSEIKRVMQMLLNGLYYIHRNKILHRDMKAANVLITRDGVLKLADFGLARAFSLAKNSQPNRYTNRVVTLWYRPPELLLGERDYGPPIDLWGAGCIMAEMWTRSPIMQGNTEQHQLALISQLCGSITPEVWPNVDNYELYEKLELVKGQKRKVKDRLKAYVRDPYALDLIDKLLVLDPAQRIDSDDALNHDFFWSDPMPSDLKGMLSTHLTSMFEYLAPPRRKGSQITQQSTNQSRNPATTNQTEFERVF

[9] = biological target: CLK1 (Homo sapiens, UniProt P49759)
[10] = biological target: DMPK (Homo sapiens, UniProt Q09013)
[11] = biological target: EIF2AK2 (Homo sapiens, UniProt P19525)
[12] = biological target: EPHB1 (Homo sapiens, UniProt P54762)
[13] = biological target: FGFR2 (Homo sapiens, UniProt P21802)
[14] = biological target: FGR (Homo sapiens, UniProt P09769)
[15] = biological target: FLT3 (Homo sapiens, UniProt P36888)
[16] = biological target: GRK2 (Homo sapiens, UniProt P25098)
[17] = biological target: GRK6 (Homo sapiens, UniProt P43250)
[18] = biological target: LRRK2 (Homo sapiens, UniProt Q5S007)
Sequence of LRRK2 (Q5S007 whole entry): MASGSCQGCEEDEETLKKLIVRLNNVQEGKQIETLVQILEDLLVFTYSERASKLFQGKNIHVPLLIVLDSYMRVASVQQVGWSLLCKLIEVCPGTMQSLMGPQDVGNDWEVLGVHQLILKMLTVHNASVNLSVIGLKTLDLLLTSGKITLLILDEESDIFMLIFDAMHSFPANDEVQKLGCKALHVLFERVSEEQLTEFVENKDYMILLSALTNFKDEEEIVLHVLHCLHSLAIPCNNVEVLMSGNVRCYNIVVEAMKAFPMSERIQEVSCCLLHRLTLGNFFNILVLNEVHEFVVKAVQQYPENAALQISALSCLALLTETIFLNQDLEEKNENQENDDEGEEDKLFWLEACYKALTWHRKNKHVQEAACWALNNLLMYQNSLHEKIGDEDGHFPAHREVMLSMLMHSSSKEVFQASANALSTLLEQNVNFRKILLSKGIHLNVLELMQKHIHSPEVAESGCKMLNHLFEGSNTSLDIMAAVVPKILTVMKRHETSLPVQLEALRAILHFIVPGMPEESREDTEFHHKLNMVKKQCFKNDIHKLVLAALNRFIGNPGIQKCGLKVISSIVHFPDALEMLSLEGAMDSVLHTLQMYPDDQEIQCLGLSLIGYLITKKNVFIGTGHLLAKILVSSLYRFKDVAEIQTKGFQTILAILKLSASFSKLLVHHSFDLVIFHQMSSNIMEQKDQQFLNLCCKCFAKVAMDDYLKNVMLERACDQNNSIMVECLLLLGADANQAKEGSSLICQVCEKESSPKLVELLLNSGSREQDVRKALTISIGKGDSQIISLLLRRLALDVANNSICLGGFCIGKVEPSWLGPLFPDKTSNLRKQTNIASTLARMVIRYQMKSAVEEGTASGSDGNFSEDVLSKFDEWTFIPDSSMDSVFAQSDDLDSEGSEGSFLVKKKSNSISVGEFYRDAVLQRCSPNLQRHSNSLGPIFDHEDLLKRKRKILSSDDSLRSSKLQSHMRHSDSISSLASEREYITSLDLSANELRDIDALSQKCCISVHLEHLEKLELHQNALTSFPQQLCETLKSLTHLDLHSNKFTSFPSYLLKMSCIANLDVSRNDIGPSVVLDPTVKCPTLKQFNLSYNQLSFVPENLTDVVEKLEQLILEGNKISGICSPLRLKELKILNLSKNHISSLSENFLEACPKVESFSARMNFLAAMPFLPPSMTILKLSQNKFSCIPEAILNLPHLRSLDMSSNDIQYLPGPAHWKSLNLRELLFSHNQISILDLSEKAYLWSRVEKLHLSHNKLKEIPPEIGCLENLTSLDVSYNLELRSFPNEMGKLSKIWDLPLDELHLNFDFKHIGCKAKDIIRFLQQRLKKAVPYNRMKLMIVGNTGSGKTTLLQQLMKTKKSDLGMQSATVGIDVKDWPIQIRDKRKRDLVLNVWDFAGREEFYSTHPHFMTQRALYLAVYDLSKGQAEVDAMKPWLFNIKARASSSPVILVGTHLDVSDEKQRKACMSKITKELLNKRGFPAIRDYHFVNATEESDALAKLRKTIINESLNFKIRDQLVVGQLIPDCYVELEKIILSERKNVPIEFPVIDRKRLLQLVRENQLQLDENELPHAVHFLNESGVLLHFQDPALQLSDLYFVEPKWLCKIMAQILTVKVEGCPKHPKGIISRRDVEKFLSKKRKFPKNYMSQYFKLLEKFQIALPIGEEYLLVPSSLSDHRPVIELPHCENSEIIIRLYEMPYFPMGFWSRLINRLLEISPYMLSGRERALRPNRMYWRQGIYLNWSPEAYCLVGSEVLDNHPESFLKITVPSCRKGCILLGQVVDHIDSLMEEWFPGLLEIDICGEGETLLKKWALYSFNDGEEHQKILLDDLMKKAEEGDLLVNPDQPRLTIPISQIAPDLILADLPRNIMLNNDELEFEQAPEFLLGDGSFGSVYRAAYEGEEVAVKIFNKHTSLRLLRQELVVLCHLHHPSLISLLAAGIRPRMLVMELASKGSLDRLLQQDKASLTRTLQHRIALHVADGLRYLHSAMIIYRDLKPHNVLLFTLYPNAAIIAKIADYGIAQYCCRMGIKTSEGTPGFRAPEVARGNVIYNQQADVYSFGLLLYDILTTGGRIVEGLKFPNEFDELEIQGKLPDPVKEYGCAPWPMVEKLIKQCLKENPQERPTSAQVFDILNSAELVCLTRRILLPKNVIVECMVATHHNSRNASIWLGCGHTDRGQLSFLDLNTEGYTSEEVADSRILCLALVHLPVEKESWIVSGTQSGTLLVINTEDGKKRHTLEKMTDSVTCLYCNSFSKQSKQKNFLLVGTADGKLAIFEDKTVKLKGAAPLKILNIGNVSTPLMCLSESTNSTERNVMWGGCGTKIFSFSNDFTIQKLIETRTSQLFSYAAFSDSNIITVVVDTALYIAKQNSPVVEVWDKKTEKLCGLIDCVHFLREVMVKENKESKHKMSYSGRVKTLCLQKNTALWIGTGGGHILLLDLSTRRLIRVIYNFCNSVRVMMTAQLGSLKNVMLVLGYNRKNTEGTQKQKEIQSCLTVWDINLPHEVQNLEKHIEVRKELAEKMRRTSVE

[19] = biological target: LYN (Homo sapiens, UniProt P07948)
[20] = biological target: MST1 (Homo sapiens, UniProt Q13043)
[21] = biological target: MYLK3 (Homo sapiens, UniProt Q32MK0)
Sequence of MYLK3 (Q32MK0 whole entry): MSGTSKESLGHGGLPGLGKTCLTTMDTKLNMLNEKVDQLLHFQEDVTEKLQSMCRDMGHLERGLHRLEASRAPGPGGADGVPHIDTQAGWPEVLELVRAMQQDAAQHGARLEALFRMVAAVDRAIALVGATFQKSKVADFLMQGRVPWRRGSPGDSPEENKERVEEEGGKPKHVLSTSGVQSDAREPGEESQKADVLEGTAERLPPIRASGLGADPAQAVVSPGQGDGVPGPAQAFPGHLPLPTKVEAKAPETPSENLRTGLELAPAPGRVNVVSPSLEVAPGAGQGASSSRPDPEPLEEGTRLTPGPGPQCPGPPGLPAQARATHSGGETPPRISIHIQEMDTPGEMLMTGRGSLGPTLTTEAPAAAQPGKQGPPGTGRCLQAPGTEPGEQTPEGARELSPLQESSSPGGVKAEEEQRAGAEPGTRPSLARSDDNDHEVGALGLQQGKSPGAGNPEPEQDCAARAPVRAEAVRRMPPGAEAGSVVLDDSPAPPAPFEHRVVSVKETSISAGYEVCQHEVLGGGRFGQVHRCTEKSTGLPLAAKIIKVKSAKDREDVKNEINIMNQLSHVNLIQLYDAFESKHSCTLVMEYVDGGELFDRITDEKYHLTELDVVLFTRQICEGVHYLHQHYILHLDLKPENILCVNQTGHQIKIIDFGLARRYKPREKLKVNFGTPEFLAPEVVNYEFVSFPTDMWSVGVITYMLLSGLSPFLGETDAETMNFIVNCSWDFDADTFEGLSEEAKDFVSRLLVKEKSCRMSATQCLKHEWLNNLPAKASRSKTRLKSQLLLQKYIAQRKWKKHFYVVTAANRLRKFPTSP

[22] = biological target: NDR1 (Homo sapiens, UniProt Q15208)
[23] = biological target: PDGFRb (Homo sapiens, UniProt P09619)
[24] = biological target: PKCa (Homo sapiens, UniProt P17252)
[25] = biological target: PKCbeta2 (Homo sapiens, UniProt P05771)
[26] = biological target: SGK2 (Homo sapiens, UniProt Q9HBY8)
[27] = biological target: SGK3 (Homo sapiens, UniProt Q96BR1)
[28] = biological target: STK25 (Homo sapiens, UniProt O00506)
[29] = biological target: TAOK3 (Homo sapiens, UniProt Q9H2K8)
[30] = biological target: VEGFR1 (Homo sapiens, UniProt P17948)
[31] = biological target: VEGFR2 (Homo sapiens, UniProt P35968)

Sequence of CDK6 (Q00534 whole entry): as the sequence (Q00534 whole entry) above

## O=C1NCCCCCNc2nc(c3ccccc3n2)Nc2cc1[nH]n2 [21c, (Z)-3^1H-2,5,11-triaza-1(4,2)-quinazolina-3(3,5)-pyrazolacycloundecaphan-4-one]
[1]
  21c Remaining activity, percent of control [%]: 84.8%
[2]
  21c Remaining activity, percent of control [%]: 96.6%
[3]
  21c Remaining activity, percent of control [%]: 94.6%
[4]
  21c Remaining activity, percent of control [%]: 106.1%
[5]
  21c Remaining activity, percent of control [%]: 101.3%
[6]
  21c Remaining activity, percent of control [%]: 105.2%
[7]
  21c Remaining activity, percent of control [%]: 85.3%
[8]
  21c Remaining activity, percent of control [%]: 83.3%
[9]
  21c Remaining activity, percent of control [%]: 79.0%
[10]
  21c Remaining activity, percent of control [%]: 94.3%
[11]
  21c Remaining activity, percent of control [%]: 75.1%
[12]
  21c Remaining activity, percent of control [%]: 77.1%
[13]
  21c Remaining activity, percent of control [%]: 79.5%
[14]
  21c Remaining activity, percent of control [%]: 75.3%
[15]
  21c Remaining activity, percent of control [%]: 103.4%
[16]
  21c Remaining activity, percent of control [%]: 96.7%
[17]
  21c Remaining activity, percent of control [%]: 87.6%
[18]
  21c Remaining activity, percent of control [%]: 90.3%
[19]
  21c Remaining activity, percent of control [%]: 139.3%
[20]
  21c Remaining activity, percent of control [%]: 105.6%
[21]
  21c Remaining activity, percent of control [%]: 86.4%
[22]
  21c Remaining activity, percent of control [%]: 86.7%
[23]
  21c Remaining activity, percent of control [%]: 71.2%
[24]
  21c Remaining activity, percent of control [%]: 107.7%
[25]
  21c Remaining activity, percent of control [%]: 100.8%
[26]
  21c Remaining activity, percent of control [%]: 105.5%
[27]
  21c Remaining activity, percent of control [%]: 96.1%
[28]
  21c Remaining activity, percent of control [%]: 57.2%
[29]
  21c Remaining activity, percent of control [%]: 102.4%
[30]
  21c Remaining activity, percent of control [%]: 100.3%
[31]
  21c Remaining activity, percent of control [%]: 90.3%
